Measured values as given in ChEMBL document CHEMBL1135585, “Mixed steroidal 1,2,4,5-tetraoxanes: antimalarial and antimycobacterial activity” (J Med Chem, 2002).
Values joined by “and” are separate entries in the source; they are usually repeats but may differ in a detail not shown here. Identical values can stand only once.

Assays:
[1] = tested on: Plasmodium falciparum; assay: microbe, parasite or virus in culture
Description: (§1) In vitro inhibitory activity against chloroquine-sensitive Plasmodium falciparum African D6

[2] = tested on: Plasmodium falciparum; assay: microbe, parasite or virus in culture; remark: listed apart in the source
Description: (§2) In vitro inhibitory activity against chloroquine-resistant Plasmodium falciparum W2 Indochina

[3] = tested on: Plasmodium falciparum
Description: as §1

[4] = tested on: Plasmodium falciparum; remark: listed apart in the source
Description: as §2

[5] = tested on: Mycobacterium tuberculosis; assay: In vitro inhibitory activity against Mycobacterium tuberculosis strain H37Rv at a concentration of 6.25 ug/mL; format: functional
[6] = tested on: Mycobacterium tuberculosis; assay: In vitro anti-mycobacterial activity against Mycobacterium tuberculosis strain H37Rv; format: functional
[7] = tested on: Vero; assay: In vitro cytotoxicity against VERO cell line; format: functional, cell-based; conditions: Chlorocebus sabaeus

COC(=O)CCC(C)C1CC[C@H]2[C@@H]3[C@H](OC(C)=O)C[C@@H]4CC5(CC[C@]4(C)[C@H]3C[C@H](OC(C)=O)[C@]12C)OOC1(CCCCC1C)OO5 (some centres not stated)
IC50 [1]: 27 nM
IC50 [2]: 15.6 nM

CCNC(=O)CCC(C)C1CC[C@H]2[C@@H]3[C@H](OC(C)=O)C[C@@H]4CC5(CC[C@]4(C)[C@H]3C[C@H](OC(C)=O)[C@]12C)OOC1(CCCCC1C)OO5 (some centres not stated)
IC50 [1]: 12.7 nM
IC50 [2]: 6.97 nM

CNC(=O)CCC(C)C1CC[C@H]2[C@@H]3[C@H](OC(C)=O)C[C@@H]4CC5(CC[C@]4(C)[C@H]3C[C@H](OC(C)=O)[C@]12C)OOC1(CCCCC1C)OO5 (some centres not stated)
IC50 [1]: 15.2 nM
IC50 [2]: 10 nM

COC(=O)CCC(C)C1CC[C@H]2[C@@H]3[C@H](OC(C)=O)C[C@@H]4CC5(CC[C@]4(C)[C@H]3C[C@H](OC(C)=O)[C@]12C)OOC1(CC(C)CCC1C(C)C)OO5 (some centres not stated)
IC50 [1]: 154 nM
IC50 [2]: 73.2 nM

CC(=O)O[C@H]1C[C@H]2[C@@H]([C@H](OC(C)=O)C[C@@H]3CC4(CC[C@@]32C)OOC2(CCCCC2C)OO4)[C@@H]2CCC(C(C)CCC(N)=O)[C@@]12C (some centres not stated)
IC50 [1]: 17.3 nM
IC50 [2]: 11.1 nM

CCCNC(=O)CCC(C)C1CC[C@H]2[C@@H]3[C@H](OC(C)=O)C[C@@H]4CC5(CC[C@]4(C)[C@H]3C[C@H](OC(C)=O)[C@]12C)OOC1(CCCCC1C)OO5 (some centres not stated)
IC50 [1]: 13.2 nM
IC50 [2]: 9.29 nM

COC(=O)CCC(C)C1CC[C@H]2[C@@H]3[C@H](OC(C)=O)C[C@@H]4CC5(CC[C@]4(C)[C@H]3C[C@H](OC(C)=O)[C@]12C)OOC1(OO5)C(C)CCCC1C (some centres not stated)
IC50 [1]: 31.2 nM
IC50 [2]: 357 nM

CC(=O)O[C@H]1C[C@H]2[C@@H]([C@H](OC(C)=O)C[C@@H]3CC4(CC[C@@]32C)OOC2(CCCCC2C)OO4)[C@@H]2CCC(C(C)CCC(=O)O)[C@@]12C (some centres not stated)
IC50 [1]: 67.6 nM
IC50 [2]: 37.5 nM

COC(=O)CCC(C)C1CC[C@H]2[C@@H]3[C@H](OC(C)=O)C[C@@H]4CC5(CC[C@]4(C)[C@H]3C[C@H](OC(C)=O)[C@]12C)OOC1(CCCCCCC1)OO5 (some centres not stated)
IC50 [1]: 48.4 nM
IC50 [2]: 20 nM

CC(=O)O[C@H]1C[C@H]2[C@@H]([C@H](OC(C)=O)C[C@@H]3CC4(CC[C@@]32C)OOC2(CCCCC2)OO4)[C@@H]2CCC(C(C)CCC(=O)O)[C@@]12C (some centres not stated)
IC50 [1]: 11.8 nM
IC50 [2]: 19.2 nM

COC(=O)CCC(C)C1CC[C@H]2[C@@H]3[C@H](OC(C)=O)C[C@@H]4CC5(CC[C@]4(C)[C@H]3C[C@H](OC(C)=O)[C@]12C)OOC1(CCCCC1)OO5 (some centres not stated)
IC50 [1]: 21.5 nM
IC50 [2]: 17 nM

COC(=O)CNC(=O)CCC(C)C1CC[C@H]2[C@@H]3[C@H](OC(C)=O)C[C@@H]4CC5(CC[C@]4(C)[C@H]3C[C@H](OC(C)=O)[C@]12C)OOC1(CCCCC1)OO5 (some centres not stated)
IC50 [1]: 22 nM
IC50 [2]: 10.8 nM

COC(=O)CCC(C)C1CC[C@H]2[C@@H]3[C@H](OC(C)=O)C[C@@H]4CC5(CC[C@]4(C)[C@H]3C[C@H](OC(C)=O)[C@]12C)OOC1(CCCC1)OO5 (some centres not stated)
IC50 [1]: 39.1 nM
IC50 [2]: 27.7 nM

CCCNC(=O)CCC(C)C1CC[C@H]2[C@@H]3[C@H](OC(C)=O)C[C@@H]4CC5(CC[C@]4(C)[C@H]3C[C@H](OC(C)=O)[C@]12C)OOC1(CCCCC1)OO5 (some centres not stated)
IC50 [1]: 14.8 nM
IC50 [2]: 6.8 nM

CC(=O)O[C@H]1C[C@H]2[C@@H]([C@H](OC(C)=O)C[C@@H]3CC4(CC[C@@]32C)OOC2(CCCCC2)OO4)[C@@H]2CCC(C(C)CCC(N)=O)[C@@]12C (some centres not stated)
IC50 [1]: 11.8 nM
IC50 [2]: 4.74 nM

CCNC(=O)CCC(C)C1CC[C@H]2[C@@H]3[C@H](OC(C)=O)C[C@@H]4CC5(CC[C@]4(C)[C@H]3C[C@H](OC(C)=O)[C@]12C)OOC1(CCC(CC)CC1)OO5 (mixture of isomers; 22)
IC50 [1]: 19.8 nM
IC50 [2]: 9.56 nM

COC(=O)CCC(C)C1CC[C@H]2[C@@H]3[C@H](OC(C)=O)C[C@@H]4CC5(CC[C@]4(C)[C@H]3C[C@H](OC(C)=O)[C@]12C)OOC1(CCC(C)CC1)OO5 (stereo in doubt; 3g)
IC50 [3]: 9.99 nM
IC50 [4]: 5.05 nM
inhibition at 6.25 µg/mL [5]: 29%
MIC [6]: > 6.25 µg/mL and > 9.63 µM

CC(=O)O[C@H]1C[C@H]2[C@@H]([C@H](OC(C)=O)C[C@@H]3CC4(CC[C@@]32C)OOC2(CCC(C)CC2)OO4)[C@@H]2CCC(C(C)CCC(=O)O)[C@@]12C (stereo in doubt; 4g)
IC50 [3]: 1.53 nM
IC50 [4]: 0.98 nM
inhibition at 6.25 µg/mL [5]: 21%
MIC [6]: > 6.25 µg/mL and > 9.84 µM

CCC1CCC2(CC1)OOC1(CC[C@@]3(C)[C@H](C[C@@H](OC(C)=O)[C@@H]4[C@@H]3C[C@H](OC(C)=O)[C@]3(C)C(C(C)CCC(=O)O)CC[C@@H]43)C1)OO2 (stereo in doubt; 4i)
IC50 [1]: 5.76 nM
IC50 [2]: 7.26 nM

CC(=O)O[C@H]1C[C@H]2[C@@H]([C@H](OC(C)=O)C[C@@H]3CC4(CC[C@@]32C)OOC2(CCC(C)CC2)OO4)[C@@H]2CCC(C(C)CCC(N)=O)[C@@]12C (stereo in doubt; 12)
IC50 [3]: 1.17 nM
IC50 [4]: 0.58 nM
IC50 [7]: 3.49 µg/mL and 5.51 µM
inhibition at 6.25 µg/mL [5]: 99%
MIC [6]: 3.13 µg/mL and 4.94 µM

CNC(=O)CCC(C)C1CC[C@H]2[C@@H]3[C@H](OC(C)=O)C[C@@H]4CC5(CC[C@]4(C)[C@H]3C[C@H](OC(C)=O)[C@]12C)OOC1(CCC(C)CC1)OO5 (stereo in doubt; 13)
IC50 [3]: 5.96 nM
IC50 [4]: 3.61 nM
IC50 [7]: 5.69 µg/mL and 8.78 µM
inhibition at 6.25 µg/mL [5]: 98%
MIC [6]: 6.25 µg/mL and 9.65 µM

CCNC(=O)CCC(C)C1CC[C@H]2[C@@H]3[C@H](OC(C)=O)C[C@@H]4CC5(CC[C@]4(C)[C@H]3C[C@H](OC(C)=O)[C@]12C)OOC1(CCC(C)CC1)OO5 (stereo in doubt; 14)
IC50 [3]: 5.8 nM
IC50 [4]: 3.93 nM
IC50 [7]: 5.37 µg/mL and 8.11 µM
inhibition at 6.25 µg/mL [5]: 98%
MIC [6]: 3.13 µg/mL and 4.73 µM

CCCNC(=O)CCC(C)C1CC[C@H]2[C@@H]3[C@H](OC(C)=O)C[C@@H]4CC5(CC[C@]4(C)[C@H]3C[C@H](OC(C)=O)[C@]12C)OOC1(CCC(C)CC1)OO5 (stereo in doubt; 15)
IC50 [3]: 3.22 nM
IC50 [4]: 3.82 nM
IC50 [7]: 8.34 µg/mL and 12.3 µM
inhibition at 6.25 µg/mL [5]: 94%
MIC [6]: 6.25 µg/mL and 9.25 µM

CC(=O)O[C@H]1C[C@H]2[C@@H]([C@H](OC(C)=O)C[C@@H]3CC4(CC[C@@]32C)OOC2(CCC(C)CC2)OO4)[C@@H]2CCC(C(C)CCC(N)=O)[C@@]12C (stereo in doubt; 16)
IC50 [3]: 20 nM
IC50 [4]: 14.1 nM

CNC(=O)CCC(C)C1CC[C@H]2[C@@H]3[C@H](OC(C)=O)C[C@@H]4CC5(CC[C@]4(C)[C@H]3C[C@H](OC(C)=O)[C@]12C)OOC1(CCC(C)CC1)OO5 (stereo in doubt; 17)
IC50 [3]: 16.7 nM
IC50 [4]: 11.9 nM

CCNC(=O)CCC(C)C1CC[C@H]2[C@@H]3[C@H](OC(C)=O)C[C@@H]4CC5(CC[C@]4(C)[C@H]3C[C@H](OC(C)=O)[C@]12C)OOC1(CCC(C)CC1)OO5 (stereo in doubt; 18)
IC50 [3]: 15.6 nM
IC50 [4]: 9.93 nM

CCCNC(=O)CCC(C)C1CC[C@H]2[C@@H]3[C@H](OC(C)=O)C[C@@H]4CC5(CC[C@]4(C)[C@H]3C[C@H](OC(C)=O)[C@]12C)OOC1(CCC(C)CC1)OO5 (stereo in doubt; 19)
IC50 [3]: 84.9 nM
IC50 [4]: 83 nM

C[C@@H]1CC[C@H]2[C@@H](C)C(=O)O[C@@H]3O[C@@]4(C)CC[C@@H]1[C@]32OO4 [ARTEMISININ]
IC50 [1]: 8.4 nM
IC50 [2]: 7.3 nM

NNC(=O)c1ccncc1 [ISONIAZID]
IC50 [7]: > 1000 µg/mL and > 7 mM
MIC [6]: 0.05 µg/mL and 0.36 µM

OC(c1cc(C(F)(F)F)nc2c(C(F)(F)F)cccc12)C1CCCCN1 (configuration not stated) [MEFLOQUINE]
IC50 [1]: 28.3 nM

CO[C@H]1/C=C/O[C@@]2(C)Oc3c(C)c(O)c4c(O)c(c(/C=N/N5CCN(C)CC5)c(O)c4c3C2=O)NC(=O)/C(C)=C\C=C\[C@H](C)[C@H](O)[C@@H](C)[C@@H](O)[C@@H](C)[C@H](OC(C)=O)[C@@H]1C [RIFAMPIN]
IC50 [7]: 111 µg/mL and 134 µM
MIC [6]: 0.12 µg/mL and 0.15 µM
